In ChEMBL document CHEMBL5143723, “Orally Bioavailable Enzymatic Inhibitor of CD38, MK-0159, Protects against Ischemia/Reperfusion Injury in the Murine Heart” (J Med Chem, 2022) one finds IC50 and AUC data, which are given here for 8 compounds.

Data set [1] has as its target T1, ADP-ribosyl cyclase/cyclic ADP-ribose hydrolase 1 (Homo sapiens, UniProt P28907).
T1 sequence (P28907 whole entry): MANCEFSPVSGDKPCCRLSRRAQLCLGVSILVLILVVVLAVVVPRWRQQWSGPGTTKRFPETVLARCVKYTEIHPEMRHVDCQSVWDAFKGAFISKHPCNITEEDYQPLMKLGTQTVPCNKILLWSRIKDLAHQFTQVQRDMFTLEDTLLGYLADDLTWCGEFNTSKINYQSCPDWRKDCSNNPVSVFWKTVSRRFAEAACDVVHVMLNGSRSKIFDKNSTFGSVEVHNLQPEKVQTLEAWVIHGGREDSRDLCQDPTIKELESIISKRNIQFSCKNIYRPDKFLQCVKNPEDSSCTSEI
Description: Inhibition of human his tagged CD38 using N6-etheno-NAD as substrate by fluorescence microplate reader assay

Data set [2] in a line: Drug exposure in mouse plasma assessed as AUC of drug at 3 mg/kg, po. Type of data set: ADME, organism-based. Also on record: dose 3 mg/kg, route po.

A word on the IC50: it is the concentration that gives 50% inhibition. A higher IC50 goes with weaker potency in that assay. With `COCCO[C@H]1CC[C@H](NC(=O)c2cc(-c3cncs3)cn3ccnc23)CC1`, the IC50 in data set [1] was over 100 µM.
Still for that read-out and setting: with `COCCO[C@H]1CC[C@H](NC(=O)c2cc(-c3cncs3)cn3cnnc23)CC1` the figure was over 100 µM.
For orientation: AUC means the area under the concentration-time curve, a measure of exposure. As for `COCCO[C@H]1CC[C@H](NC(=O)c2cc(-c3cncs3)nc3cc[nH]c23)CC1`, the exposure (AUC) in data set [2] was 6820 ng·h/mL.
For `COCCO[C@H]1CC[C@H](NC(=O)c2cc(-c3cncs3)cc3cc[nH]c23)CC1`, the AUC in data set [2] is 7380 ng·h/mL.
`COCCO[C@H]1CC[C@H](NC(=O)c2cc(-c3cscn3)cc3cc[nH]c23)CC1` returned an IC50 in data set [1] of over 100 µM.
Turning to `COCCO[C@H]1CC[C@H](NC(=O)c2cc(-c3cncs3)cc3[nH]cc(C#N)c23)CC1`, in data set [2], the AUC stood at 75 ng·h/mL.
Still for that read-out and setting: then `COCCO[C@H]1CC[C@H](NC(=O)c2cc(-n3ccnc3)cc3cn[nH]c23)CC1`, with 207 ng·h/mL.
Still for that read-out and setting: then `COCCO[C@H]1CC[C@H](NC(=O)c2cc(-c3cncs3)c(F)c3[nH]ccc23)CC1`, with 5110 ng·h/mL.
